Results: patent publication US6579718B1, “Carbazolylvinyl dye protein stains” (Molecular Probes, Inc., priority 2000, dated 2003)

What was measured:
[1] = test system: amino acid homo- and hetero-polymers; experiment: Dye staining of amino acid homo- and hetero-polymers copolymerized into polyacrylamide gel discs; settings: gel discs with 0.1% SDS; no asterisk = moderate
Excerpt: The specificity of protein detection of the present method can be compared to that of silver, CBB, SYPRO Orange dye and SYPRO Red dye staining for a variety of synthetic poly(amino acids) copolymerized into a polyacrylamide gel matrix. To do this, homopolymers of L-arginine, asparagine, histidine, lysine, aspartate, glutamate, alanine, glycine, isoleucine, leucine, methionine, serine, threonine, tryptophan, tyrosine and proline are copolymerized into 15% T, 2.6% C polyacrylamide gels at a concentration of […]. Except when indicated, 0.1% sodium dodecyl sulfate is included in the polyacrylamide solution as well. The amino acid heteropolymers, poly(glutamate, alanine, tyrosine), poly(glutamate, tyrosine), poly(lysine, tyrosine), poly(glutamate, lysine, tyrosine), and poly(arginine, tyrosine) are copolymerized into polyacrylamide gels in an identical manner as the homopolymers. Blank gels containing no polymer are prepared for reference. The co-polymerized gels are cut into discs using the large end of a 1000 microliter pipet tip (Sorenson Bioscience, Inc., West Salt. Lake City, Utah) and stained in Falcon 48 well flat bottom tissue culture plates (Becton-Dickinson, Franklin Lakes, N.J.) on an orbital shaker operating at 50 RPM. Gel discs are quantified on a Roche Lumi-Imager system (Indianapolis, Ind.) and classified into three groups based upon staining intensity (strong, moderate, or weak staining).

BSA = BSA (Bos taurus, UniProt P02769); experiment: Absorbance/emission spectra, fluorescence enhancement and quantum yield of dyes in solution +/- BSA (Example 21); format: physicochemical, bovine; settings: for ABS λ max, BSA / EM λ max, BSA / FE (fluorescence enhancement, BSA) / Quantum Yield (BSA): 150 μg/mL BSA; for ABS λ max, BSA / EM λ max, BSA / ABS λ max, unbound / EM λ max, unbound: 10 mM Tris-HCl, pH 7.5, 0.05% SDS; for FE (fluorescence enhancement, BSA): 0.05% SDS, at emission maxima; for FE (fluorescence enhancement, BSA) / Quantum Yield (BSA): 470 nm excitation; for Quantum Yield (BSA): relative to fluorescein in 0.1 M NaOH; for ABS λ max, unbound / EM λ max, unbound: dye without BSA
Chain of BSA (P02769 25-607): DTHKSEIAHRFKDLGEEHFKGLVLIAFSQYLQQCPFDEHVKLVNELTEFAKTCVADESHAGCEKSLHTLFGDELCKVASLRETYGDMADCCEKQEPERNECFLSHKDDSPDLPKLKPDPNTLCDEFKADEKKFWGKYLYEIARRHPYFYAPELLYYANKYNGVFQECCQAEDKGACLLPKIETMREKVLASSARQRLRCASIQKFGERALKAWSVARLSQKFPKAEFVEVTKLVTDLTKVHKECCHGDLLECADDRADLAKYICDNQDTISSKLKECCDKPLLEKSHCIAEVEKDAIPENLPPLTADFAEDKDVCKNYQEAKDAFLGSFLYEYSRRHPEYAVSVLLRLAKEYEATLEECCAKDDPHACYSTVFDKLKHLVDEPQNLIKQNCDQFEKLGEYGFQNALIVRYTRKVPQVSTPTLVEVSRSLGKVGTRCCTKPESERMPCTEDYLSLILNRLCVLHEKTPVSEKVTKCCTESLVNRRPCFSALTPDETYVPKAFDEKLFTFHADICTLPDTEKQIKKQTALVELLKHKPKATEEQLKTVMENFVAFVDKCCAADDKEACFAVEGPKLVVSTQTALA
Protocol: A particular dye of this invention is generally selected for a particular assay using one or more of the following criteria: sensitivity to poly(amino acids), insensitivity to the presence of nucleic acids, dynamic range, photostability, staining time, and spectral properties. […] Although the fluorescence enhancements and quantum yields are low to moderate in solution, some are significant relative to the long wavelength emission maxima (see Table 1 and Example 21).
Measurements are performed using −1 μM dye+/−150 μg/mL BSA in 10 mM Tris-HCl, pH 7.5,+0.05% SDS with a 2.0 mL sample volume. Fluorescence enhancements are calculated at emission maxima in a standard fluorometer using 470 nm excitation. Fluorescence quantum yields are determined relative to fluorescein (in 0.1 M NaOH), using 470 nm excitation.

[2] = test system: broad-range protein molecular weight markers; experiment: Staining of broad-range molecular weight protein standards in SDS-polyacrylamide gels (Example 22, FIG. 2, 3); settings: regardless of the buffer
Protocol: (§1) FIG. 2: Intensity profile comparison after staining broad-range protein molecular weight markers with SYPRO Orange dye in 7% acetic acid and phosohate-buffered saline. FIG. 2A.) Profile obtained with SYPRO Orange dye in 7% acetic acid. FIG. 2B.) Profile obtained with SYPRO Orange dye in 50 mM sodium phosphate, 150 mM sodium chloride, pH 7.0. Grey scale values of the fluorescence signals were inverted prior to obtaining the traces to facilitate evaluation of the peaks.
as §1, with “3:” for “2:”, “Compound 9” for “SYPRO Orange dye”, “phosphate-buffered” for “phosohate-buffered”, “3A.)” for “2A.)”, “3B.)” for “2B.)”
SDS-polyacrylamide gel electrophoresis is performed by standard methods utilizing 4% T, 2.6% C stacking gels, pH 6.8 and 15% T, 2.6% C separating gels, pH 8.8. % T is the total monomer concentration expressed in grams per 100 mL and % C is the percentage crosslinker. A staining solution of Compound 9 is prepared by diluting a stock solution that 5 is […] dye in DMSO in either 7.5% acetic acid or 50 mM Na2HPO4, 150 mM NaCl, pH 7.0 with vigorous mixing. Alternatively, a wide range of buffers are compatible with staining, including but not limited to formate, pH 4.0; citrate, pH 4.5; acetate, pH 5.0; MES, pH 6.0;
imidazole, pH 7.0; HEPES, pH 7.5; Tris acetate, pH 8.0; Tris-HCl, pH 8.5; Tris borate, 20 mM EDTA, pH 9.0; and bicarbonate, pH 10.0. Buffers should be prepared as 50-100 mM 10 solutions containing about 150 mM NaCl. Approximately 50-75 mL of staining solution is used for a typical mini-gel (5 cm×9 cm×1 mm). The gel is placed into the staining solution and the container is covered with aluminum foil to protect the dye from bright light. The gel is gently agitated for at least 30 minutes at room temperature using an orbital shaker (50:RPM). After staining, the gel is briefly dipped in water and visualized on a UV light box. […] As little as 1 ng of protein may be visualized when the fluorescent image is recorded by photography using a cellophane 490-nm long pass filter. […] In the latter buffer, protein bands are barely detectable above background fluorescence with these latter dyes.

Row | Molecule | Staining intensity, Arg homopolymer [1] | Staining intensity, Arg:Tyr heteropolymer [1] | Staining intensity, Glu:Lys:Tyr heteropolymer [1] | Staining intensity, His homopolymer [1] | Staining intensity, Ile homopolymer [1] | Staining intensity, Lys homopolymer [1] | Staining intensity, Lys:Tyr heteropolymer [1] | ABS λ max, BSA (BSA) [nm] | EM λ max, BSA (BSA) [nm] | FE (fluorescence enhancement, BSA) (BSA) [fold] | Quantum Yield (BSA) (BSA) | ABS λ max, unbound (BSA) [nm] | EM λ max, unbound (BSA) [nm] | Appearance of stained proteins on UV light box [2]
1 | CCOc1ccc(Nc2ccc(C(=C3C=CC(=[N+](CC)Cc4cccc(S(=O)(=O)[O-])c4)C=C3)c3ccc(N(CC)Cc4cccc(S(=O)(=O)[O-])c4)cc3)cc2)cc1.[Na+] [Coomassie Blue-R] | Arg* | Arg:Tyr* | Glu:Lys:Tyr* | His | Ile | Lys* | Lys:Tyr* |  |  |  |  |  |  | 
2 | CCn1c2ccccc2c2cc(/C=C/c3cc[n+](CCCC(=O)O)c4ccccc34)ccc21.[Cl-] [Compound 11] |  |  |  |  |  |  |  | 483 | 609 | 104 | 0.21 | 475 | ~700 | 
3 | CCn1c2ccccc2c2cc(/C=C/c3ccc4cc(OC)ccc4[n+]3C)ccc21 [Compound 17] |  |  |  |  |  |  |  |  | ~610 | 2.5 | 0.04 |  | 679 | 
4 | CCn1c2ccccc2c2cc(/C=C/c3cc[n+](CCCS(=O)(=O)[O-])cc3)ccc21 [Compound 13] |  |  |  |  |  |  |  |  | 553 | 15 | 0.24 |  | 588 | very bright yellow bands against an orange background
5 | CCOCC(=O)CCC[n+]1ccc(/C=C/c2ccc3c(c2)c2ccccc2n3CC)c2ccccc21.[Br-] [Compound 10] |  |  |  |  |  |  |  | 492 | 612 | 110 | 0.21 | 468 | ~700 | 
6 | O=S(=O)([O-])CCCC[n+]1ccc(/C=C/c2ccc3c(c2)c2ccccc2n3-c2ccccc2)c2ccccc21 [Compound 15] |  |  |  |  |  |  |  | 469 | 591 | 52 | 0.25 | 468 | 670 | 
7 | CCCCc1cc(/C=C/c2ccc3c(c2)c2ccccc2n3CC)c2ccccc2[n+]1-c1ccccc1.[Cl-] [Compound 16] |  |  |  |  |  |  |  | 491 | 623 | 25 | 0.17 | 480 | 676 | 
8 | Silver |  |  | Tyr* |  | Ile | Lys* | Lys:Tyr* |  |  |  |  |  |  | 
9 | CCn1c2ccccc2c2cc(/C=C/c3ccc4ccccc4[n+]3CCCCS(=O)(=O)[O-])ccc21 [Compound 12] |  |  |  |  |  |  |  | 453 | 587 | 34 | 0.10 | 441 | 679 | 
10 | CCn1c2ccccc2c2cc(/C=C/c3sc4ccccc4[n+]3CCCS(=O)(=O)[O-])ccc21 [Compound 14] |  |  |  |  |  |  |  | 464 | 576 | 15 | 0.08 | 448 | 638 | 
11 | CCn1c2ccccc2c2cc(/C=C/C3=[N+](CCCCCC(=O)O)c4ccc(S(=O)(=O)[O-])cc4C3(C)C)ccc21 [Compound 18] |  |  |  |  |  |  |  | 502 | 590 | 3.0 | 0.01 | 503 | 611 | 
